Laboratory results published in patent publication US20210085711A1 (Japan Tobacco Inc., priority 2017, published 2021).

Legend:
Format in all cases: in vivo, human
[1] = system: patients with hypermenorrhea and/or patients with hypermenorrhea-associated gynecologic diseases (iron-deficiency anemia patients); assay: Phase II clinical trial of JTT-751: intact FGF23 value (iFGF23)
Method: (§1) This test was a three-stage safety and efficacy clinical trial at multi-facilities. The first stage was a pre-observation period (Day −40 to Day −1), the second stage was an administration period (Day 1 to Day 48) (efficacy and safety evaluation period), and the third stage was a post-observation period (Day 49 to Day 63) (efficacy and safety evaluation period). The safety evaluation and efficacy evaluation were performed by multi-facility collaboration, placebo control, random allocation, double-blind trial, and parallel group comparison test.
(§2) (1) Japanese patients who are 20 or more and less than 65 years old at the time of agreement and can visit an outpatient clinic (2) Patients who have an Hb value (measured using HemoCue® Hb 201 DM analyzer in the institute of clinical practice) of 7.0 g/dL or more and less than 11.0 g/dL on both the observation start date and Week 0, and the difference between the two days is 1.0 g/dL or less (3) Patients with a TIBC of 360 μg/dL or more or a serum ferritin value of less than 12 ng/mL on the observation start date
(§3) The administration period of the trial drug is seven weeks which starts from the next day of the Week 0 visit to the day before the Week 7 visit, provided that the trial drug is not taken on the scheduled Week 3 visit.
(§4) The blood hemoglobin value (Hb), the serum iron level, the serum ferritin value, the total iron-binding capacity (TIBC) and the transferrin saturation rate (TSAT), and the mean corpuscular volume (MCV) were each examined at the observation start date, Week 0, Week 3, Week 7, the end of administration and the consultation at nine weeks after Week 0; the hepcidin concentration (Hepcidin 25) and the serum soluble transferrin receptor concentration (sTfR) were each examined on Week 0, Week 3 and Week 7 and at the end of administration; and the C-terminal FGF23 value (cFGF23) and the intact FGF23 value (iFGF23) were each examined on Week 0 and Week 7 and at the end of administration.

[2] = system: patients with hypermenorrhea and/or patients with hypermenorrhea-associated gynecologic diseases (iron-deficiency anemia patients); assay: Phase II clinical trial of JTT-751: total iron-binding capacity (TIBC)
Method: as §1, §2, §3
(2) Subsidiary evaluation items 1) Erythrocyte-related examination values and amount of change from Week 0 at each observation date 2) Iron-related test values and amount of change from Week 0 at each observation date 3) Achievement rate of target Hb value (female; 12.0 g/dL or more, male; 13.0 g/dL or more) at each observation date 4) Achievement rate of 1.0 g/dL or more and achievement rate of 2.0 g/dL or more in Hb value improvement from Week 0 at each observation date 5) Average daily change of Hb value from Week 0 to each observation date
as §4

[3] = system: patients with hypermenorrhea and/or patients with hypermenorrhea-associated gynecologic diseases (iron-deficiency anemia patients); assay: Phase II clinical trial of JTT-751: C-terminal FGF23 value (cFGF23)
Method: as §1, §2, §3, §4

[4] = End of administration, JTT-751 250 mg group
[5] = End of administration, JTT-751 500 mg group
[6] = End of administration, JTT-751 1000 mg group
[7] = End of administration, JTT-751 1500 mg group
[8] = Week 0 (baseline), JTT-751 250 mg group
[9] = Week 0 (baseline), JTT-751 500 mg group
[10] = Week 0 (baseline), JTT-751 1000 mg group
[11] = Week 0 (baseline), JTT-751 1500 mg group
[12] = 250 mg/day, 9 weeks after Week 0
[13] = 250 mg/day, End of administration
[14] = 500 mg/day, 9 weeks after Week 0
[15] = 500 mg/day, End of administration
[16] = 1000 mg/day, 9 weeks after Week 0
[17] = 1000 mg/day, End of administration
[18] = 1500 mg/day, 9 weeks after Week 0
[19] = 1500 mg/day, End of administration

Ferric citrate [JTT-751]
intact FGF23 value (iFGF23), time-dependent change ([1]; 1000 mg administration group and 1500 mg administration group): decreased along with the continuous administration of the JTT-751 tablet and improved
iFGF23, Mean [1, 4]: 34.74 pg/mL
iFGF23, Median [1, 4]: 33.65 pg/mL
iFGF23, Mean [1, 5]: 41.06 pg/mL
iFGF23, Median [1, 5]: 38.20 pg/mL
iFGF23, Mean [1, 6]: 33.62 pg/mL
iFGF23, Median [1, 6]: 30.40 pg/mL
iFGF23, Mean [1, 7]: 36.30 pg/mL
iFGF23, Median [1, 7]: 35.00 pg/mL
iFGF23, Mean [1, 8]: 36.73 pg/mL
iFGF23, Median [1, 8]: 33.90 pg/mL
iFGF23, Mean [1, 9]: 43.53 pg/mL
iFGF23, Median [1, 9]: 42.05 pg/mL
iFGF23, Mean [1, 10]: 41.93 pg/mL
iFGF23, Median [1, 10]: 42.50 pg/mL
iFGF23, Mean [1, 11]: 46.09 pg/mL
iFGF23, Median [1, 11]: 44.00 pg/mL
iFGF23, Mean ([1]; Week 7, JTT-751 250 mg group): 34.74 pg/mL
iFGF23, Median ([1]; Week 7, JTT-751 250 mg group): 33.65 pg/mL
iFGF23, Mean ([1]; Week 7, JTT-751 500 mg group): 41.06 pg/mL
iFGF23, Median ([1]; Week 7, JTT-751 500 mg group): 38.20 pg/mL
iFGF23, Mean ([1]; Week 7, JTT-751 1000 mg group): 33.62 pg/mL
iFGF23, Median ([1]; Week 7, JTT-751 1000 mg group): 30.40 pg/mL
iFGF23, Mean ([1]; Week 7, JTT-751 1500 mg group): 36.30 pg/mL
iFGF23, Median ([1]; Week 7, JTT-751 1500 mg group): 35.00 pg/mL
TIBC, profile from the baseline (value at Week 0), Mean [2, 12]: -42.8 µg/dL
TIBC, profile from the baseline (value at Week 0), Median [2, 12]: -39.0 µg/dL
TIBC, profile from the baseline (value at Week 0), Mean [2, 13]: -60.1 µg/dL
TIBC, profile from the baseline (value at Week 0), Median [2, 13]: -62.0 µg/dL
TIBC, profile from the baseline (value at Week 0), Mean ([2]; 250 mg/day, Week 3): -28.3 µg/dL
TIBC, profile from the baseline (value at Week 0), Median ([2]; 250 mg/day, Week 3): -24.0 µg/dL
TIBC, profile from the baseline (value at Week 0), Mean ([2]; 250 mg/day, Week 7): -60.1 µg/dL
TIBC, profile from the baseline (value at Week 0), Median ([2]; 250 mg/day, Week 7): -62.0 µg/dL
TIBC, profile from the baseline (value at Week 0), Mean [2, 14]: -49.6 µg/dL
TIBC, profile from the baseline (value at Week 0), Median [2, 14]: -49.0 µg/dL
TIBC, profile from the baseline (value at Week 0), Mean [2, 15]: -61.7 µg/dL
TIBC, profile from the baseline (value at Week 0), Median [2, 15]: -49.5 µg/dL
TIBC, profile from the baseline (value at Week 0), Mean ([2]; 500 mg/day, Week 3): -30.9 µg/dL
TIBC, profile from the baseline (value at Week 0), Median ([2]; 500 mg/day, Week 3): -28.5 µg/dL
TIBC, profile from the baseline (value at Week 0), Mean ([2]; 500 mg/day, Week 7): -61.7 µg/dL
TIBC, profile from the baseline (value at Week 0), Median ([2]; 500 mg/day, Week 7): -49.5 µg/dL
TIBC, profile from the baseline (value at Week 0), Mean [2, 16]: -68.7 µg/dL
TIBC, profile from the baseline (value at Week 0), Median [2, 16]: -75.0 µg/dL
TIBC, profile from the baseline (value at Week 0), Mean [2, 17]: -80.4 µg/dL
TIBC, profile from the baseline (value at Week 0), Median [2, 17]: -70.0 µg/dL
TIBC, profile from the baseline (value at Week 0), Mean ([2]; 1000 mg/day, Week 3): -54.1 µg/dL
TIBC, profile from the baseline (value at Week 0), Median ([2]; 1000 mg/day, Week 3): -54.0 µg/dL
TIBC, profile from the baseline (value at Week 0), Mean ([2]; 1000 mg/day, Week 7): -80.4 µg/dL
TIBC, profile from the baseline (value at Week 0), Median ([2]; 1000 mg/day, Week 7): -70.0 µg/dL
TIBC, profile from the baseline (value at Week 0), Mean [2, 18]: -63.0 µg/dL
TIBC, profile from the baseline (value at Week 0), Median [2, 18]: -68.5 µg/dL
TIBC, profile from the baseline (value at Week 0), Mean [2, 19]: -79.7 µg/dL
TIBC, profile from the baseline (value at Week 0), Median [2, 19]: -84.0 µg/dL
TIBC, profile from the baseline (value at Week 0), Mean ([2]; 1500 mg/day, Week 3): -60.7 µg/dL
TIBC, profile from the baseline (value at Week 0), Median ([2]; 1500 mg/day, Week 3): -70.0 µg/dL
TIBC, profile from the baseline (value at Week 0), Mean ([2]; 1500 mg/day, Week 7): -79.7 µg/dL
TIBC, profile from the baseline (value at Week 0), Median ([2]; 1500 mg/day, Week 7): -84.0 µg/dL
total iron-binding capacity (TIBC), time-dependent change ([2]; Week 0, Week 3 and Week 7): decreased along with the continuous administration
cFGF23, Mean [3, 13]: 214.72 RU/mL
cFGF23, Median [3, 13]: 158.50 RU/mL
cFGF23, Mean ([3]; 250 mg/day, Week 0 (baseline)): 779.17 RU/mL
cFGF23, Median ([3]; 250 mg/day, Week 0 (baseline)): 705.00 RU/mL
cFGF23, Mean ([3]; 250 mg/day, Week 7): 214.72 RU/mL
cFGF23, Median ([3]; 250 mg/day, Week 7): 158.50 RU/mL
cFGF23, Mean [3, 15]: 151.89 RU/mL
cFGF23, Median [3, 15]: 127.50 RU/mL
cFGF23, Mean ([3]; 500 mg/day, Week 0 (baseline)): 1011.06 RU/mL
cFGF23, Median ([3]; 500 mg/day, Week 0 (baseline)): 773.50 RU/mL
cFGF23, Mean ([3]; 500 mg/day, Week 7): 151.89 RU/mL
cFGF23, Median ([3]; 500 mg/day, Week 7): 127.50 RU/mL
cFGF23, Mean [3, 17]: 130.39 RU/mL
cFGF23, Median [3, 17]: 100.00 RU/mL
cFGF23, Mean ([3]; 1000 mg/day, Week 0 (baseline)): 675.16 RU/mL
cFGF23, Median ([3]; 1000 mg/day, Week 0 (baseline)): 564.00 RU/mL
cFGF23, Mean ([3]; 1000 mg/day, Week 7): 130.39 RU/mL
cFGF23, Median ([3]; 1000 mg/day, Week 7): 100.00 RU/mL
cFGF23, Mean [3, 19]: 114.92 RU/mL
cFGF23, Median [3, 19]: 94.20 RU/mL
cFGF23, Mean ([3]; 1500 mg/day, Week 0 (baseline)): 842.52 RU/mL
cFGF23, Median ([3]; 1500 mg/day, Week 0 (baseline)): 777.00 RU/mL
cFGF23, Mean ([3]; 1500 mg/day, Week 7): 114.92 RU/mL
cFGF23, Median ([3]; 1500 mg/day, Week 7): 94.20 RU/mL
C-terminal FGF23 value (cFGF23), time-dependent change ([3]; continuous administration): decreased along with the continuous administration
